Experiments:
Settings in all cases: 72 h
[1] = system: KCL-22
Method in brief: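 Fifteen myeloid leukaemia lines in RPMI 1640 were treated for 72 h at 37 °C and 5% CO2 with five tenfold doses from 1 to 10,000 nM, in duplicate. ATP luminescence was normalised to vehicle and to a positive control at 10 µM, then fitted with a four-parameter log-logistic model. The IC50 came from these fits.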

[2] = system: HL-60; experiment: cell viability (% survival relative to DMSO control); higher = less cytotoxic
Method in brief: (§1)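 Four-parameter log-logistic fits in drc and PharmacoGx supplied area under the curve where it is given. Underlying viability came from CellTiter-Glo, normalised to DMSO and proteasome-inhibitor wells, with the proteasome inhibitor at 10 μM. HL-60 cells in RPMI 1640 plus 10% FBS had been rescreened against the full library at five tenfold concentrations of 1–10,000 nM, in duplicate on 384-well plates, with DMSO or 100 nM of one of three metabolic inhibitors, for 72 h at 37 °C, 5% CO2.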

[3] = system: BV-173; experiment: cell viability (% survival relative to DMSO control, bortezomib = 0%); higher = less cytotoxic
Method in brief: (§2)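 After 72 h at 37 °C with 5% CO2, cell viability in 384-well plates was measured by CellTiter-Glo luminescence. The plates held compounds pre-printed at 1, 10, 100, 1000 or 10000 nM in duplicate, and cells from 10 AML and 5 CML lines seeded at densities titrated to linear growth. Percent survival is the duplicate mean, normalised to vehicle as 100% and a 10 µM positive control as 0%.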

[4] = system: HEL; experiment: as above
Method in brief: as §2

[5] = system: HL-60; experiment: as above
Method in brief: as §2

[6] = system: K-562; experiment: as above
Method in brief: as §2

[7] = system: KCL-22; experiment: as above
Method in brief: as §2

[8] = system: KG-1; experiment: as above
Method in brief: as §2

[9] = system: KU-812; experiment: as above
Method in brief: as §2

[10] = system: LAMA-84; experiment: as above
Method in brief: as §2

[11] = system: ML-2; experiment: as above
Method in brief: as §2

[12] = system: MOLM-13; experiment: as above
Method in brief: as §2

[13] = system: MV4-11; experiment: as above
Method in brief: as §2

[14] = system: Mono-Mac-6; experiment: as above
Method in brief: as §2

[15] = system: NOMO-1; experiment: as above
Method in brief: as §2

[16] = system: SHI-1; experiment: as above
Method in brief: as §2

[17] = system: THP-1; experiment: as above
Method in brief: as §2

[18] = system: HL-60; experiment: area under dose-response curve (viability, 1 nM-10 uM) (fraction (0-1)); higher = more sensitive
Method in brief: as §1

CC(=O)N1CCN(c2ccc(OC[C@@H]3CO[C@@](Cn4ccnc4)(c4ccc(Cl)cc4Cl)O3)cc2)CC1 (racemic) [Ketoconazole]
Settings | IC50 (cell viability) [µM]
[1] | 8.91

cell viability [%], [2]
Settings | 0.001 µM | 0.01 µM | 0.1 µM | 1 µM | 10 µM
co-treatment: AZD3965 100 nM | 98.3 | 95.6 | 105 | 109 | 96.1
co-treatment: DMSO vehicle | 99.7 | 96.9 | 104 | 104 | 102.6
co-treatment: GSK2194069 100 nM | 100 | 78.8 | 109 | 110 | 95.6
co-treatment: pictilisib 100 nM | 88.8 | 95.03 | 106 | 111 | 102

Settings | area under dose-response curve, co-treatment: AZD3965 100 nM | area under dose-response curve, co-treatment: DMSO vehicle | area under dose-response curve, co-treatment: GSK2194069 100 nM | area under dose-response curve, co-treatment: pictilisib 100 nM | cell viability, 1 nM [%] | cell viability, 10 nM [%] | cell viability, 100 nM [%] | cell viability, 1000 nM [%] | cell viability, 10000 nM [%]
[3] | – | – | – | – | 90.8 | 78.3 | 100 | 92.6 | 78.8
[4] | – | – | – | – | 104 | 105 | 94.1 | 112 | 67.2
[5] | – | – | – | – | 104 | 109 | 97.8 | 112 | 75.5
[6] | – | – | – | – | 98.6 | 95.2 | 97.3 | 91.8 | 95.8
[7] | – | – | – | – | 98.4 | 117 | 101 | 103 | 44.1
[8] | – | – | – | – | 97.5 | 105 | 90.9 | 93.7 | 42.9
[9] | – | – | – | – | 100 | 102 | 95.1 | 105 | 70.5
[10] | – | – | – | – | 104 | 97.9 | 96.3 | 96.7 | 82.6
[11] | – | – | – | – | 97.8 | 113 | 90.8 | 101 | 69.9
[12] | – | – | – | – | 92.5 | 110 | 100 | 104 | 88.1
[13] | – | – | – | – | 92.5 | 94.3 | 102 | 98.2 | 54.7
[14] | – | – | – | – | 93.6 | 91.8 | 95.6 | 94 | 90.1
[15] | – | – | – | – | 102 | 95.5 | 100 | 99.8 | 99.5
[16] | – | – | – | – | 104 | 113 | 96.3 | 114 | 97.5
[17] | – | – | – | – | 105 | 95.9 | 97.4 | 104 | 91.1
[18] | < 0.0301 | < 0.0301 | < 0.0301 | < 0.0301 | – | – | – | – | –

CC(C)c1ccc2c(c1)c(SC(C)(C)C)c(CC(C)(C)C(=O)O)n2Cc1ccc(Cl)cc1 [MK-886]
Settings | IC50 (cell viability) [µM]
[1] | 4.26

cell viability [%], [2]
Settings | 0.001 µM | 0.01 µM | 0.1 µM | 1 µM | 10 µM
co-treatment: AZD3965 100 nM | 105 | 95.8 | 108 | 99.8 | 102
co-treatment: DMSO vehicle | 103 | 99.9 | 104.5 | 107 | 109.9
co-treatment: GSK2194069 100 nM | 104 | 98.8 | 105 | 97.5 | 94.4
co-treatment: pictilisib 100 nM | 105 | 98.1 | 109 | 98.9 | 108

Settings | area under dose-response curve, co-treatment: AZD3965 100 nM | area under dose-response curve, co-treatment: DMSO vehicle | area under dose-response curve, co-treatment: GSK2194069 100 nM | area under dose-response curve, co-treatment: pictilisib 100 nM | cell viability, 1 nM [%] | cell viability, 10 nM [%] | cell viability, 100 nM [%] | cell viability, 1000 nM [%] | cell viability, 10000 nM [%]
[3] | – | – | – | – | 121 | 89.6 | 114 | 103 | 94.9
[4] | – | – | – | – | 110 | 112 | 99.2 | 95.3 | 82.7
[5] | – | – | – | – | 108 | 103 | 94.8 | 93.7 | 124
[6] | – | – | – | – | 109 | 97 | 101 | 100 | 106
[7] | – | – | – | – | 108 | 110 | 105 | 89.7 | 39.1
[8] | – | – | – | – | 111 | 102 | 89.4 | 93.8 | 91.5
[9] | – | – | – | – | 109 | 97.3 | 94.1 | 94.9 | 91.5
[10] | – | – | – | – | 96.6 | 101 | 97.2 | 100 | 115
[11] | – | – | – | – | 132 | 107 | 95.3 | 95.8 | 67.8
[12] | – | – | – | – | 89 | 103 | 88.9 | 85.3 | 88.4
[13] | – | – | – | – | 107 | 109 | 96.9 | 94.5 | 96.5
[14] | – | – | – | – | 111 | 109 | 91.5 | 101 | 108
[15] | – | – | – | – | 120 | 110 | 106 | 107 | 97.5
[16] | – | – | – | – | 108 | 110 | 104 | 93.2 | 98.3
[17] | – | – | – | – | 96.6 | 101 | 98.2 | 96.8 | 108
[18] | < 0.0301 | < 0.0301 | < 0.0301 | < 0.0301 | – | – | – | – | –

NS(=O)(=O)c1ccc(S(=O)(=O)Nc2cccc3c(Cl)c[nH]c23)cc1 [Indisulam]
Settings | IC50 (cell viability) [µM]
[1] | 1.08

cell viability [%], [2]
Settings | 0.001 µM | 0.01 µM | 0.1 µM | 1 µM | 10 µM
co-treatment: AZD3965 100 nM | 97.4 | 97.92 | 98.8 | 110 | 89.8
co-treatment: DMSO vehicle | 96.4 | 95 | 101 | 104 | 92.2
co-treatment: GSK2194069 100 nM | 101 | 101 | 100 | 105 | 90.9
co-treatment: pictilisib 100 nM | 110 | 95.2 | 104 | 112.7 | 77.3

Settings | area under dose-response curve, co-treatment: AZD3965 100 nM | area under dose-response curve, co-treatment: DMSO vehicle | area under dose-response curve, co-treatment: GSK2194069 100 nM | area under dose-response curve, co-treatment: pictilisib 100 nM | cell viability, 1 nM [%] | cell viability, 10 nM [%] | cell viability, 100 nM [%] | cell viability, 1000 nM [%] | cell viability, 10000 nM [%]
[3] | – | – | – | – | 108 | 87.3 | 110 | 46.6 | 9.34
[4] | – | – | – | – | 103 | 98.1 | 95.8 | 95.9 | 34.7
[5] | – | – | – | – | 107 | 107 | 85.8 | 97.2 | 37.1
[6] | – | – | – | – | 113 | 101 | 89.2 | 65.4 | 36.7
[7] | – | – | – | – | 102 | 104 | 87.4 | 58.6 | 19
[8] | – | – | – | – | 139 | 129 | 173 | 50.5 | 15.5
[9] | – | – | – | – | 102 | 99.1 | 108 | 29.9 | 13.7
[10] | – | – | – | – | 94.3 | 89 | 111 | 55.2 | 21.9
[11] | – | – | – | – | 99.1 | 104 | 97.9 | 35.2 | 3.51
[12] | – | – | – | – | 122 | 102 | 97.8 | 32.6 | 7.24
[13] | – | – | – | – | 99.4 | 84.3 | 56.2 | 0.62 | 0.0378
[14] | – | – | – | – | 101 | 95.3 | 80.3 | 48.2 | 11.1
[15] | – | – | – | – | 102 | 98.4 | 105 | 63.2 | 24.8
[16] | – | – | – | – | 96.8 | 101 | 97.4 | 65.2 | 26.8
[17] | – | – | – | – | 103 | 94.5 | 112 | 94.3 | 71.1
[18] | < 0.0301 | < 0.0301 | < 0.0301 | < 0.0301 | – | – | – | – | –

Reference: the supplement of paper PMC8671470
